From patent publication US12281119B2, “Imidazo[2,1-f][1,2,4]triazin-4-amine derivatives as TLR7 agonist” (BEIGENE, LTD., priority 2019, dated 2025)

Key:
human TLR7 = molecular target: T1, human TLR7 (Homo sapiens, UniProt Q9NYK1); assay: TLR7 stimulation determined using HEK-Blue Detection; type: cell-based; parameters: expressed in transfected cells; host or cells: HEK293 (HEK-Blue hTLR7); settings: HEK-Blue hTLR7 cells, HEK-Blue Detection (A77-A124), 16 hr, relative to Resiquimod maximum
T1 sequence (Q9NYK1 27-1049): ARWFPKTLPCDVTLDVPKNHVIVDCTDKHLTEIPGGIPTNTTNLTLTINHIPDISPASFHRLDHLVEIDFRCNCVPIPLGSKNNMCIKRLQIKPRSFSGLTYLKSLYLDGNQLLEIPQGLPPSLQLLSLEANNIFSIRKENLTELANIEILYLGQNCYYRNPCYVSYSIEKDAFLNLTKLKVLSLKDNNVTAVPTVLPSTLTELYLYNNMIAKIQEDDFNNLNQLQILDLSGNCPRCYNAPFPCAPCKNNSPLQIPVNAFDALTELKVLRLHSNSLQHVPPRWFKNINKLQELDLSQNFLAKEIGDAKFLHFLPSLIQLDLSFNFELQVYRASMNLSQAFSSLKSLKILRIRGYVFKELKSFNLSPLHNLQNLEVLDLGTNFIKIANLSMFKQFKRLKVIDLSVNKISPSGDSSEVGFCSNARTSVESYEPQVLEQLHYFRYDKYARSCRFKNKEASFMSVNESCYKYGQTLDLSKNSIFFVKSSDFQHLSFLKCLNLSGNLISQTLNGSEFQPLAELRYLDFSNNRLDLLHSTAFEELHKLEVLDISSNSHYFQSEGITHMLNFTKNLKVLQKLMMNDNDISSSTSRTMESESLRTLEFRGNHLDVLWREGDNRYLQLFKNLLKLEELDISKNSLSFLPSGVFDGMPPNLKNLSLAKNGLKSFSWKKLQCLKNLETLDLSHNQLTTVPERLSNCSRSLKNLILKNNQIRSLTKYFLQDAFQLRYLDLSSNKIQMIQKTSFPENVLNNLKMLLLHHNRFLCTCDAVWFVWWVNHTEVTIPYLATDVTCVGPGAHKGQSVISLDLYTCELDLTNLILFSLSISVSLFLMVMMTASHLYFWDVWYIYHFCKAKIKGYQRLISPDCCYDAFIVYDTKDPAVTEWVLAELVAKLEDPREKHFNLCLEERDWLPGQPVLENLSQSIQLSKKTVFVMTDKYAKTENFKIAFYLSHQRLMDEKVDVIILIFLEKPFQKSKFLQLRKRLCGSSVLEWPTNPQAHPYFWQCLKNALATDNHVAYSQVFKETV
Source text: TLR7 Stimulation Determined Using HEK-Blue Detection
This assay was designed for studying the stimulation of human TLR7 protein in HELK-Blue hTLR7 tool cell line by monitoring the activation of NF-κB. HEK-Blue hTLR7 cells were obtained by co-transfection of the hTLR7 gene and an optimized secreted embryonic alkaline phosphatase (SLAP) reporter gene into HEK293 cells. The SLAP reporter gene was placed under the control of the IFN-β minimal promoter fused to five NF-κB and AP-1-binding sites. Stimulation with a TLR7 ligand activates NF-κB and AP-1 which induce the expression of SLAP. Levels of SLAP can be easily determined with HEK-Blue Detection, a cell culture medium that allows for real-time detection of SLAP. HLK-Blue Detection contains all the nutrients necessary for cell growth and a specific SLAP color substrate. The hydrolysis of the substrate by SLAP produces a purple/blue color that can be measured with a spectrophotometer.
When growing to 50-80%0 confluency, HLK-Blue hTLR7 cells were plated into 96-well plate (costar 3599) at a density of 40000 cells/well. Then compounds were added with serial dilutions over 10 points with a 0.04 nM-10 μM final concentration range in 0.1% DMSO/BLK-Blue Detection. The plates were then incubated for 16 hr at 37° C. in […] and vortex for 30s before measurement. The optical density at 620-655 nm was read on BMG PHLRAstar FSX instrument. The EC50 for each compound was determined by calculating the percentages of the maximum activation identified with Resiquimod.

human TLR 8 protein = molecular target: T2, human TLR 8 protein (Homo sapiens, UniProt Q9NR97); assay: TLR8 stimulation determined using HEK-Blue Detection; type: cell-based; settings: HEK-Blue hTLR8 cells, 16 hr, relative to Resiquimod or Motolimod maximum
T2 construct: expressed in transfected cells; host or cells: HEK293 (HEK-Blue hTLR8)
T2 sequence (Q9NR97 27-1041): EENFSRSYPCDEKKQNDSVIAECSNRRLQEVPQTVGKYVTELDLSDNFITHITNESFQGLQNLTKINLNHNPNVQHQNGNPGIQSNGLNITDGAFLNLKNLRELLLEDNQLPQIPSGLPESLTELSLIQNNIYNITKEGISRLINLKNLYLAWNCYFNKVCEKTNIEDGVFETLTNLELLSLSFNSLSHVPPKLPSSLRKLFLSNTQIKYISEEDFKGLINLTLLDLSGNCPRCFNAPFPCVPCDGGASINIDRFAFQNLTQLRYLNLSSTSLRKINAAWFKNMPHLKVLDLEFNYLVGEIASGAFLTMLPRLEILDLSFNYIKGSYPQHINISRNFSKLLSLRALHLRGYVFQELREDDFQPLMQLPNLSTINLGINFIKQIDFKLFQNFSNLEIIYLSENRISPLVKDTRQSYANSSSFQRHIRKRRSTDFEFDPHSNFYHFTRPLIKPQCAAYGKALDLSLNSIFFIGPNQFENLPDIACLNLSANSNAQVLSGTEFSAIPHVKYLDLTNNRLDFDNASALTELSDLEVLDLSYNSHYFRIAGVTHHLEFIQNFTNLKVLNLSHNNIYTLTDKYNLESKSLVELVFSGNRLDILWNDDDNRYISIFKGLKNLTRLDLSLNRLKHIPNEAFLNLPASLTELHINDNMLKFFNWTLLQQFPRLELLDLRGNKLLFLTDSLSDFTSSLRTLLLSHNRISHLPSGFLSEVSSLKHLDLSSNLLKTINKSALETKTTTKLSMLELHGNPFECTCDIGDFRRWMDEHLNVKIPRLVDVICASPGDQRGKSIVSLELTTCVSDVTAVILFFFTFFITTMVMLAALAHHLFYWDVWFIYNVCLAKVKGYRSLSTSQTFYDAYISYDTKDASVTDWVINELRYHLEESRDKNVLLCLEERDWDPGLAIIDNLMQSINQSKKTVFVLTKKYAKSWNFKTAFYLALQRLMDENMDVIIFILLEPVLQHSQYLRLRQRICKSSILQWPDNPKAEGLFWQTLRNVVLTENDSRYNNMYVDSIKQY
In short: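 HEK-Blue hTLR8 cells with NF-κB/AP-1-driven SEAP reporter, 40000 cells/well, treated with 10-point dilutions (1 nM-10 uM final, 0.1% DMSO) for 16 hr at 37° C. SEAP read as OD 620-655 nm. EC50 derived from percent of maximum activation set by Resiquimod or Motolimod.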

| Structure (SMILES) | EC50 (human TLR7) [nM] | EC50 (human TLR 8 protein) [nM] |
| --- | --- | --- |
| CCCC(CCO)Oc1nc(N)c2ncc(Cc3ccc(OCCNC)cc3OCC)n2n1 (single isomer, unassigned) [Compound A121, (R or S)-3-((4-amino-7-(2-ethoxy-4-(2-(methylamino)ethoxy)benzyl)imidazo[2,1-f][1,2,4]triazin-2-yl)oxy)hexan-1-ol] | 0.63 | 19 |
| CCCC(CCO)Oc1nc(N)c2ncc(Cc3ccc(OCC(C)NC)nc3)n2n1 (single isomer, unassigned) [Compound A122, (R or S)-3-((4-amino-7-((6-(2-(methylamino)propoxy)pyridin-3-yl)methyl)imidazo[2,1-f][1,2,4]triazin-2-yl)oxy)hexan-1-ol] | 6 | 113 |
| CCCC(CCO)Oc1nc(N)c2ncc(Cc3c(F)cc(OCCNC)cc3F)n2n1 (single isomer, unassigned) [Compound A123, (R or S)-3-((4-amino-7-(2,6-difluoro-4-(2-(methylamino)ethoxy)benzyl)imidazo[2,1-f][1,2,4]triazin-2-yl)oxy)hexan-1-ol] | 0.7 | 15 |
| CCCC(CCO)Oc1nc(N)c2ncc(Cc3ccc(OCCNC)c4ccccc34)n2n1 (single isomer, unassigned) [Compound A124, (R or S)-3-((4-amino-7-((4-(2-(methylamino)ethoxy)naphthalen-1-yl)methyl)imidazo[2,1-f][1,2,4]triazin-2-yl)oxy)hexan-1-ol] | 1.2 | 105 |
| CCCC(C)Oc1nc(N)c2ncc(Cc3ccc(OCCNC)nc3)n2n1 (stereo not drawn) [Compound A77, 7-((6-(2-(methylamino)ethoxy)pyridin-3-yl)methyl)-2-(pentan-2-yloxy)imidazo[2,1-f][1,2,4]triazin-4-amine] | 19.2 | 293 |
| CCCC(C)Oc1nc(N)c2ncc(Cc3cnc(OCCNC)c(C)c3)n2n1 (stereo not drawn) [Compound A78, 7-((5-methyl-6-(2-(methylamino)ethoxy)pyridin-3-yl)methyl)-2-(pentan-2-yloxy)imidazo[2,1-f][1,2,4]triazin-4-amine] | 23 | 1140 |
| CCCC(CCO)Oc1nc(N)c2ncc(Cc3ccc(OCCNC)nc3)n2n1 (stereo not drawn) [Compound A79, 3-((4-amino-7-((6-(2-(methylamino)ethoxy)pyridin-3 yl)methyl)imidazo[2,1-f][1,2,4]triazin-2-yl)oxy)hexan-1-ol] | 10 | 69 |
| CNCCOc1ccc(Cc2cnc3c(N)nc(OCC4CCOC4)nn23)cn1 (stereo not drawn) [Compound A80, 7-((6-(2-(methylamino)ethoxy)pyridin-3-yl)methyl)-2-((tetrahydrofuran-3-yl)methoxy)imidazo[2,1-f][1,2,4]triazin-4-amine] | 446 | > 10000 |
| CCC(CC)Oc1nc(N)c2ncc(Cc3ccc(OCCNC)nc3)n2n1 [Compound A83, 7-((6-(2-(methylamino)ethoxy)pyridin-3-yl)methyl)-2-(pentan-3-yloxy)imidazo[2,1-f][1,2,4]triazin-4-amine] | 42.6 | 458 |
| CCCC(CC)Oc1nc(N)c2ncc(Cc3ccc(OCCNC)nc3)n2n1 (stereo not drawn) [Compound A84, 2-(hexan-3-yloxy)-7-((6-(2-(methylamino)ethoxy)pyridin-3-yl)methyl)imidazo[2,1-f][1,2,4]triazin-4-amine] | 6.9 | 192 |
| CCCC(CCO)Oc1nc(N)c2ncc(Cc3ccc(OCCNC)cc3)n2n1 (stereo not drawn) [Compound A85, 3-((4-amino-7-(4-(2-(methylamino)ethoxy)benzyl)imidazo [2,1-f][1,2,4]triazin-2-yl)oxy)hexan-1-ol] | 4.5 | 41 |
| CCCC(CCO)Oc1nc(N)c2ncc(Cc3ccc(OCCCNC)nc3)n2n1 (stereo not drawn) [Compound A86, 3-((4-amino-7-((6-(3-(methylamino)propoxy)pyridin-3-yl)methyl)imidazo[2,1-f][1,2,4]triazin-2-yl)oxy)hexan-1-ol] | 57.7 | 541 |
